Measured values published in US20230242582A1, “NOVEL ALPHA-HELICAL DOUBLE-SIDED CELL PENETRATING PEPTIDE AND USE THEREOF” (CAMP THERAPEUTICS INC., priority 2020, published 2023).
Positions of bridges follow the written chain, without caps; N, C: chain ends. Non-standard residues stand in square brackets, D forms with d. Residues, ends and D or L forms follow the SMILES beside them. Chains are numbered I, II in the order given. tBuAla = CC(C)(C)C[C@H](N)C(=O)O; hCys = N[C@@H](CCS)C(=O)O

Experiments:
HeLa cells [1] = assay: Cell-penetrating ability of fluorescently labeled dimeric peptides, flow cytometry; assay type: cell-based, human; conditions: for ratio of cell-penetrating ability to cytotoxicity (IC50^−1): at 62.5 nM, FIG. 6A
Experimental: During preparation of CPPs in dimeric form shown in Tables 1 to 3, one monomer thereof was prepared in a form where 5-TAMRA fluorescence was attached to the N-terminus, instead of acetyl. A monomer with acetyl and a monomer with 5-TAMRA fluorescence were mixed in a molar ratio of 1:1, and subjected to an oxidation condition in air to produce a dimeric form in which only one fluorescence was labeled per dimer molecule. Then, cell-penetrating ability of each dimer was identified. Each fluorescently labeled peptide was used to treat HeLa cells (5×10^4 cells/well), which are human-derived cells, and a ratio of the number of cells with fluorescence to the total number of cells was obtained through flow cytometry.
FIGS. 4B to 4D illustrate results obtained by treating cells with respective dimers at the same concentration (62.5 nM), measuring fluorescence intensity of the cells by flow cytometry, and relatively comparing the fluorescence intensity.
Based on cell-penetrating ability and cytotoxicity of the dimeric peptides of the present disclosure, correlation therebetween was identified. Cytotoxicity (IC50^−1) and cell-penetrating ability of the respective peptides were identified at 62.5 nM according to the methods described in Examples 5 and 6, and then graphically represented.

HeLa cells [2] = assay: Cytotoxicity of dimeric peptides, WST-1 assay; assay type: cell-based, human; conditions: IC50 relative to LK-3, HeLa cells
Experimental: Cytotoxicity was identified using WST-1 assay by treating HeLa cells with peptides in a 96-well plate (1×10^4 cells/well) for 24 hours.
Specifically, HeLa cells were cultured in DMEM at a condition of 37° C. with 5% CO2. The cells were respectively cultured in a cell culture plate, and then removed with trypsin. The cells were seeded at 1×10^4 cells per well in a 96-well plate. After 24 hours, the peptide was added to the media, and culture was performed again at a condition of 37° C. with 5% CO2 for 24 hours. 10 uL of WST-1 reagent was added per well, and reaction was allowed to proceed for 30 minutes at a condition of 37° C. with 5% CO2. Then, UV absorbance was measured at 450/700 nm with a 96-well plate reader.

Compound	ratio of cell-penetrating ability to cytotoxicity (IC50^−1) (HeLa cells [1])	ratio (HeLa cells [2])	cell-penetrating ability (HeLa cells [1]; HeLa cells, flow cytometry, FIG. 4)
CC(=O)N[C@@H](CC(C)C)C(=O)N[C@@H](CCCCN)C(=O)N[C@@H](CCCCN)C(=O)N[C@@H](CC(C)C)C(=O)N[C@H]1CSSC[C@@H](C(=O)N[C@@H](CCCCN)C(=O)N[C@@H](CC(C)C)C(=O)N[C@@H](C)C(=O)NCC(N)=O)NC(=O)[C@H](CC(C)C)NC(=O)[C@H](CCCCN)NC(=O)[C@H](CCCCN)NC(=O)[C@H](CC(C)C)NC(=O)[C@H](CC(C)C)NC(=O)[C@H](CCCCN)NC(=O)[C@@H](NC(=O)[C@H](CC(C)C)NC(=O)[C@H](CCCCN)NC(=O)[C@H](CCCCN)NC(=O)[C@H](CC(C)C)NC(C)=O)CSSC[C@@H](C(=O)N[C@@H](CCCCN)C(=O)N[C@@H](CC(C)C)C(=O)N[C@@H](C)C(=O)NCC(N)=O)NC(=O)[C@H](CC(C)C)NC(=O)[C@H](CCCCN)NC(=O)[C@H](CCCCN)NC(=O)[C@H](CC(C)C)NC(=O)[C@H](CC(C)C)NC(=O)[C@H](CCCCN)NC1=O [LK-3, reference compound] (HELM PEPTIDE1{[ac].L.K.K.L.C.K.L.L.K.K.L.C.K.L.A.G.[am]}|PEPTIDE2{[ac].L.K.K.L.C.K.L.L.K.K.L.C.K.L.A.G.[am]}$PEPTIDE1,PEPTIDE2,6:R3-13:R3|PEPTIDE1,PEPTIDE2,13:R3-6:R3$$$V2.0; bridges inferred)	about 130,000	1.00	–
CC(=O)N[C@@H](CC(C)(C)C)C(=O)N[C@H]1CSSC[C@@H](C(=O)N[C@@H](CCCNC(=N)N)C(N)=O)NC(=O)[C@H](CC(C)(C)C)NC(=O)[C@H](CCCNC(=N)N)NC(=O)[C@H](CCCNC(=N)N)NC(=O)[C@H](CC(C)(C)C)NC(=O)[C@H](CC(C)(C)C)NC(=O)[C@H](CCCNC(=N)N)NC(=O)[C@@H](NC(=O)[C@H](CC(C)(C)C)NC(C)=O)CSSC[C@@H](C(=O)N[C@@H](CCCNC(=N)N)C(N)=O)NC(=O)[C@H](CC(C)(C)C)NC(=O)[C@H](CCCNC(=N)N)NC(=O)[C@H](CCCNC(=N)N)NC(=O)[C@H](CC(C)(C)C)NC(=O)[C@H](CC(C)(C)C)NC(=O)[C@H](CCCNC(=N)N)NC1=O [diNpgR10] (I: Ac-[tBuAla]CR[tBuAla][tBuAla]RR[tBuAla]CR-NH2 / II: Ac-[tBuAla]CR[tBuAla][tBuAla]RR[tBuAla]CR-NH2; disulfide I:2-II:9, I:9-II:2 (inferred))	low toxicity as compared with cell-penetrating ability	–	–
CC(=O)N[C@@H](CC(C)(C)C)C(=O)N[C@H]1CSSC[C@@H](C(=O)N[C@@H](CCCCN)C(N)=O)NC(=O)[C@H](CC(C)(C)C)NC(=O)[C@H](CCCCN)NC(=O)[C@H](CCCCN)NC(=O)[C@H](CC(C)(C)C)NC(=O)[C@H](CC(C)(C)C)NC(=O)[C@H](CCCCN)NC(=O)[C@@H](NC(=O)[C@H](CC(C)(C)C)NC(C)=O)CSSC[C@@H](C(=O)N[C@@H](CCCCN)C(N)=O)NC(=O)[C@H](CC(C)(C)C)NC(=O)[C@H](CCCCN)NC(=O)[C@H](CCCCN)NC(=O)[C@H](CC(C)(C)C)NC(=O)[C@H](CC(C)(C)C)NC(=O)[C@H](CCCCN)NC1=O [diNpgK10] (I: Ac-[tBuAla]CK[tBuAla][tBuAla]KK[tBuAla]CK-NH2 / II: Ac-[tBuAla]CK[tBuAla][tBuAla]KK[tBuAla]CK-NH2; disulfide I:2-II:9, I:9-II:2 (inferred))	low toxicity as compared with cell-penetrating ability	–	–
diLR10^C9Hcy: dimer of monomer LR10^C9Hcy, Ac-LCRLLRRLHcyR-NH2 (SEQ ID NO 43) (Ac-LCRLLRRL[hCys]R-NH2; also: dimer linked by intermolecular disulfides)	–	–	best results
